According to patent US20220073536A1 (Rigel Pharmaceuticals, Inc., priority 2003, published 2022):

Legend:
[1] = system: cultured human mast cells (CHMC); experiment: CHMC low cell density IgE activation: tryptase assay; format: cell-based; details: low cell density CHMC, IgE activation, tryptase release
In short: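 CHMC were seeded at 1000–1500 cells/well in MT buffer and incubated 1 hr at 37 °C. They were then stimulated with anti-IgE for 30 min at 37 °C, with unstimulated wells as controls. Released tryptase in the supernatant was measured with a fluorogenic substrate after 30 min at room temperature.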

[2] = system: cultured human mast cells (CHMC); experiment: CHMC low cell density ionomycin activation: tryptase assay; format: cell-based; details: low cell density CHMC, tryptase release, 3 point, read-out: LD Tryptase, CHMC, Iono, 3 pt
[3] = Homo sapiens, Mast cell, 3 point, read-out: LD Tryptase, CHMC, IgE, 3 pt
[4] = Homo sapiens, Mast cell, 8 point, read-out: LD Tryptase, CHMC, IgE, 8 pt
[5] = 3 point, read-out: LD Tryptase, CHMC, IgE, 3 pt
[6] = 8 point, read-out: LD Tryptase, CHMC, IgE, 8 pt

For `COc1cc(Nc2ncc(F)c(N(C)c3ccc(Cl)c(OC)c3)n2)cc(OC)c1` [Compound 587, N4-(4-Chloro-3-methoxyphenyl)-N2-(3,5-dimethoxyphenyl)-5-fluoro-N4-methyl-2,4-pyrimidinediamine], the IC50 [1, 3] was < 10 µM, the IC50 [1, 4] was < 10 µM and the IC50 ([2]; Homo sapiens, Mast cell) was > 10 µM.

`COc1cc(N(C)c2nc(Nc3cc(C)cc(C)c3)ncc2F)ccc1Cl` [Compound 588] was tested, and the IC50 [1, 3] was < 10 µM and the IC50 ([2]; Homo sapiens, Mast cell) was > 10 µM.

`CNC(=O)COc1cccc(Nc2ncc(F)c(N(C)c3ccc(Cl)c(OC)c3)n2)c1` [Compound 589, N4-(4-Chloro-3-methoxyphenyl)-5-fluoro-N4-methyl-N2-[3-(N-methylamino)carbonylmethyleneoxyphenyl]-2,4-pyrimidinediamine] was tested, and the IC50 [1, 5] was < 10 µM, the IC50 [1, 6] was < 10 µM and the IC50 [2] was > 10 µM.

In the case of `COc1cc(N(C)c2nc(Nc3ccc4[nH]ccc4c3)ncc2F)ccc1Cl` [Compound 590, N4-(4-Chloro-3-methoxyphenyl)-5-fluoro-N2-(indol-5-yl)-N4-methyl-2,4-pyrimidinediamine], the IC50 [1, 3] is reported as < 10 µM, the IC50 [1, 4] is reported as < 10 µM and the IC50 ([2]; Homo sapiens, Mast cell) is reported as > 10 µM.

With `COc1cc(Nc2ncc(F)c(N(C)c3cc(C)c(Cl)c(C)c3)n2)cc(OC)c1` [Compound 591] the IC50 [1, 3] was < 10 µM, the IC50 [1, 4] was < 10 µM and the IC50 ([2]; Homo sapiens, Mast cell) was > 10 µM.

With `Cc1cc(C)cc(Nc2ncc(F)c(N(C)c3cc(C)c(Cl)c(C)c3)n2)c1` [Compound 592] the IC50 [1, 3] was > 10 µM and the IC50 ([2]; Homo sapiens, Mast cell) was > 10 µM.

`CNC(=O)COc1cccc(Nc2ncc(F)c(N(C)c3cc(C)c(Cl)c(C)c3)n2)c1` [Compound 593, N4-(4-Chloro-3,5-dimethylphenyl)-5-fluoro-N4-methyl-N2-[3-(N-methylamino)carbonylmethyleneoxyphenyl]-2,4-pyrimidinediamine] was tested, and the IC50 [1, 5] was < 10 µM, the IC50 [1, 6] was < 10 µM and the IC50 [2] was > 10 µM.

With `Cc1cc(N(C)c2nc(Nc3ccc4[nH]ccc4c3)ncc2F)cc(C)c1Cl` [Compound 594] the IC50 [1, 3] was < 10 µM, the IC50 [1, 4] was < 10 µM and the IC50 ([2]; Homo sapiens, Mast cell) was < 10 µM.

For `COC(=O)c1cc2cc(Nc3ncc(F)c(N(C)c4cc(C)c(Cl)c(C)c4)n3)ccc2o1` [Compound 595], the IC50 [1, 3] was > 10 µM and the IC50 ([2]; Homo sapiens, Mast cell) was > 10 µM.

In the case of `Cc1cc(N(C)c2nc(Nc3ccc(-c4ncco4)cc3)ncc2F)cc(C)c1Cl` [Compound 596], the IC50 [1, 3] is reported as > 10 µM and the IC50 ([2]; Homo sapiens, Mast cell) is reported as > 10 µM.

For `Cc1cc(N(C)c2nc(Nc3cccc(-c4cnco4)c3)ncc2F)cc(C)c1Cl` [Compound 597], the IC50 [1, 3] was < 10 µM and the IC50 ([2]; Homo sapiens, Mast cell) was > 10 µM.

For `Cc1cc(N(C)c2nc(Nc3ccc(-c4cnco4)cc3)ncc2F)cc(C)c1Cl` [Compound 598], the IC50 [1, 3] was < 10 µM and the IC50 ([2]; Homo sapiens, Mast cell) was > 10 µM.

In the case of `Cc1cc(N(C)c2nc(Nc3ccc4cc[nH]c4c3)ncc2F)cc(C)c1Cl` [Compound 599], the IC50 [1, 3] is reported as < 10 µM and the IC50 ([2]; Homo sapiens, Mast cell) is reported as > 10 µM.

`CNC(=O)COc1ccc(Nc2nc(Nc3cc(C)cc(C)c3)ncc2F)cc1Cl` [Compound 600, N4-[3-Chloro-4-(N-methylamino)carbonylmethyleneoxyphenyl]-N2-(3,5-dimethylphenyl)-5-fluoro-2,4-pyrimidinediamine] was tested, and the IC50 [1, 5] was < 10 µM, the IC50 [1, 6] was < 10 µM and the IC50 [2] was > 10 µM.

With `CNC(=O)COc1ccc(Nc2nc(Nc3cc(OC)cc(OC)c3)ncc2F)cc1Cl` [Compound 601, N4-[3-Chloro-4-(N-methylamino)carbonylmethyleneoxyphenyl]-N2-(3,5-dimethoxylphenyl)-5-fluoro-2,4-pyrimidinediamine] the IC50 [1, 5] was < 10 µM, the IC50 [1, 6] was < 10 µM and the IC50 [2] was > 10 µM.

In the case of `CNC(=O)COc1ccc(Nc2nc(Nc3ccc(OC)c(Cl)c3)ncc2F)cc1Cl` [Compound 602, N2-(3-Chloro-4-methoxyphenyl)-N4-[3-chloro-4-(N-methylamino)carbonylmethyleneoxyphenyl]-5-fluoro-2,4-pyrimidinediamine], the IC50 [1, 5] is reported as < 10 µM, the IC50 [1, 6] is reported as < 10 µM and the IC50 [2] is reported as > 10 µM.

In the case of `CNC(=O)COc1ccc(Nc2nc(Nc3cc(C)c(Cl)c(C)c3)ncc2F)cc1Cl` [Compound 603, N2-(4-Chloro-3,5-dimethylphenyl)-N4-[3-chloro-4-(N-methylamino)carbonylmethyleneoxyphenyl]-5-fluoro-2,4-pyrimidinediamine], the IC50 [1, 5] is reported as < 10 µM, the IC50 [1, 6] is reported as > 10 µM and the IC50 [2] is reported as > 10 µM.

With `Cc1cc(N(C)c2nc(Nc3ccc(-c4cocn4)cc3)ncc2F)cc(C)c1Cl` [Compound 604] the IC50 [1, 3] was < 10 µM and the IC50 ([2]; Homo sapiens, Mast cell) was > 10 µM.

For `CNC(=O)COc1ccc(Nc2nc(Nc3ccc4cc[nH]c4c3)ncc2F)cc1Cl` [Compound 605, N4-[3-Chloro-4-(N-methylamino)carbonylmethyleneoxyphenyl]-5-fluoro-N2-(indol-6-yl)-2,4-pyrimidinediamine], the IC50 [1, 5] was < 10 µM, the IC50 [1, 6] was < 10 µM and the IC50 [2] was > 10 µM.

`COc1cc(N(C)c2nc(Nc3ccc(-c4cocn4)cc3)ncc2F)ccc1Cl` [Compound 606, N4-(4-Chloro-3-methoxyphenyl)-5-fluoro-N4-methyl-N2-[4-(oxazol-4-yl)phenyl]-2,4-pyrimidinediamine] was tested, and the IC50 [1, 3] was < 10 µM, the IC50 [1, 4] was < 10 µM and the IC50 ([2]; Homo sapiens, Mast cell) was < 10 µM.

`CNC(=O)c1cc(Nc2ncc(F)c(Nc3ccc(Cl)c(OC)c3)n2)ccc1Cl` [Compound 607, N4-(4-Chloro-3-methoxyphenyl)-N2-[4-chloro-3-(N-methylamino)carbonylphenyl]-5-fluoro-2,4-pyrimidinediamine] was tested, and the IC50 [1, 3] was < 10 µM, the IC50 [1, 4] was < 10 µM and the IC50 ([2]; Homo sapiens, Mast cell) was > 10 µM.

In the case of `CNC(=O)COc1ccc(Nc2nc(Nc3ccc(Cl)c(C(=O)NC)c3)ncc2F)cc1Cl` [Compound 608, N4-[3-Chloro-4-(N-methylamino)carbonylmethyleneoxyphenyl]-N2-[4-chloro-3-(N-methylamino)carbonylphenyl]-5-fluoro-2,4-pyrimidinediamine], the IC50 [1, 5] is reported as < 10 µM and the IC50 [2] is reported as > 10 µM.

`CNC(=O)c1cc(Nc2ncc(F)c(Nc3ccc(Cl)c(C(F)(F)F)c3)n2)ccc1Cl` [Compound 609] was tested, and the IC50 [1, 3] was < 10 µM, the IC50 [1, 4] was < 10 µM and the IC50 ([2]; Homo sapiens, Mast cell) was > 10 µM.

`CNC(=O)c1cc(Nc2ncc(F)c(N(C)c3cc(C)c(Cl)c(C)c3)n2)ccc1Cl` [Compound 610, N4-(4-Chloro-3,5-dimethylphenyl)-N2-[4-chloro-3-(N-methylamino)carbonylphenyl]-5-fluoro-N4-methyl-2,4-pyrimidinediamine] was tested, and the IC50 [1, 3] was > 10 µM and the IC50 ([2]; Homo sapiens, Mast cell) was > 10 µM.

In the case of `CNC(=O)c1ccc(Nc2ncc(F)c(Nc3ccc(Cl)c(OC)c3)n2)cc1Cl` [Compound 611, N4-(4-Chloro-3-methoxyphenyl)-N2-[3-chloro-4-(N-methylamino)carbonylphenyl]-5-fluoro-2,4-pyrimidinediamine], the IC50 [1, 3] is reported as < 10 µM, the IC50 [1, 4] is reported as < 10 µM and the IC50 ([2]; Homo sapiens, Mast cell) is reported as > 10 µM.

With `CNC(=O)c1ccc(Nc2ncc(F)c(Nc3ccc(Cl)c(C(F)(F)F)c3)n2)cc1Cl` [Compound 612, N2-[3-Chloro-4-(N-methylamino)carbonylphenyl]-N4-(4-chloro-3-trifluoromethylphenyl)-5-fluoro-2,4-pyrimidinediamine] the IC50 [1, 3] was < 10 µM, the IC50 [1, 4] was < 10 µM and the IC50 ([2]; Homo sapiens, Mast cell) was > 10 µM.

For `CNC(=O)c1ccc(Nc2ncc(F)c(N(C)c3cc(C)c(Cl)c(C)c3)n2)cc1Cl` [Compound 613, N4-(4-Chloro-3,5-dimethylphenyl)-N2-[3-chloro-4-(N-methylamino)carbonylphenyl]-5-fluoro-N4-methyl-2,4-pyrimidinediamine], the IC50 [1, 3] was < 10 µM and the IC50 ([2]; Homo sapiens, Mast cell) was > 10 µM.

With `COC(=O)COc1ccc(Nc2nc(Nc3cc(C)cc(C)c3)ncc2F)cc1Cl` [Compound 614, N4-[3-Chloro-4-(methoxycarbonyl)methyleneoxyphenyl]-N2-(3,5-dimethylphenyl)-5-fluoro-2,4-pyrimidinediamine] the IC50 [1, 5] was < 10 µM, the IC50 [1, 6] was < 10 µM and the IC50 [2] was < 10 µM.

With `COC(=O)COc1ccc(Nc2nc(Nc3cc(OC)cc(OC)c3)ncc2F)cc1Cl` [Compound 615, N4-[3-Chloro-4-(methoxycarbonyl)methyleneoxyphenyl]-N2-(3,5-dimethoxyphenyl)-5-fluoro-2,4-pyrimidinediamine] the IC50 [1, 5] was < 10 µM, the IC50 [1, 6] was < 10 µM and the IC50 [2] was < 10 µM.

In the case of `COC(=O)COc1ccc(Nc2nc(Nc3ccc(OC)c(Cl)c3)ncc2F)cc1Cl` [Compound 616, N4-[3-Chloro-4-(methoxycarbonyl)methyleneoxyphenyl]-N2-(3-chloro-4-methoxyphenyl)-5-fluoro-2,4-pyrimidinediamine], the IC50 [1, 5] is reported as < 10 µM, the IC50 [1, 6] is reported as < 10 µM and the IC50 [2] is reported as < 10 µM.

For `COC(=O)COc1ccc(Nc2nc(Nc3cc(C)c(Cl)c(C)c3)ncc2F)cc1Cl` [Compound 617, N2-(4-Chloro-3,5-dimethylphenyl)-N4-[3-chloro-4-(methoxycarbonyl)methyleneoxyphenyl]-5-fluoro-2,4-pyrimidinediamine], the IC50 [1, 5] was < 10 µM, the IC50 [1, 6] was < 10 µM and the IC50 [2] was < 10 µM.

For `COC(=O)COc1ccc(Nc2nc(Nc3ccc4[nH]ccc4c3)ncc2F)cc1Cl` [Compound 618, N4-[3-Chloro-4-(methoxycarbonyl)methyleneoxyphenyl]-5-fluoro-N2-(indol-5-yl)-2,4-pyrimidinediamine], the IC50 [1, 5] was < 10 µM, the IC50 [1, 6] was < 10 µM and the IC50 [2] was > 10 µM.

With `Cc1cc(C)cc(Nc2ncc(F)c(Nc3ccc(OCCO)c(Cl)c3)n2)c1` [Compound 619, N4-[3-Chloro-4-(2-hydroxyethyleneoxy)phenyl]-N2-(3,5-dimethylphenyl)-5-fluoro-2,4-pyrimidinediamine] the IC50 [1, 5] was < 10 µM, the IC50 [1, 6] was < 10 µM and the IC50 [2] was < 10 µM.

In the case of `COc1cc(Nc2ncc(F)c(Nc3ccc(OCCO)c(Cl)c3)n2)cc(OC)c1` [Compound 620, N4-[3-Chloro-4-(2-hydroxyethyleneoxy)phenyl]-N2-(3,5-dimethoxyphenyl)-5-fluoro-2,4-pyrimidinediamine], the IC50 [1, 5] is reported as < 10 µM, the IC50 [1, 6] is reported as < 10 µM and the IC50 [2] is reported as < 10 µM.
